The test system of series [1] is Bacillus atrophaeus spores. The series is described as follows: Filtering test: spores incubated in test solution, filtered, filter half treated with ozone, colonies counted. It is filed as cell-based. To be noted: test solution followed by ~350 ppm ozone, 5 or 10 min. The source says: Bacterial spores: Stainless steel discs with Bacillus atrophaeus spores (log 6, cat #1-6100ST, Raven Biological Laboratories).
An ozone generator provided ˜350 ppm O3, and a flow rate of ˜25 l/min, using setting No. 1.
Commercially available sterile single filters (pore size 0.45 μm) and an analytical test filter funnel from Nalgene was used (F-2161, Sigma-Aldrich). For suction, a Rietschle Thomas DTF 6 vacuum pump was used, with a flow rate of ˜6 m3/h, providing a vacuum of ˜150 mbar abs.
Filtering test: In filtering test experiments the spore solutions were prepared in a volume of 1 ml and processed. Thereto, after an incubation period of 5 min in the appropriate buffer at 40° C. using a rotary shaker, an aliquot of 250 μl of the suspension was transferred onto a sterile single use filters. The filter was washed two times with 10 ml of sterile water. The filter was retrieved under sterile conditions, and the filter was cut into halves using a sterile scissor. Only one half of the filter was treated with ozone, while the other half was kept as control, i.e. without ozone treatment. Finally, both halves were placed onto a TSA plate and incubated at 30° C. Initially Nutrient Agar plates were used, but later on a switch was made to TSA plates, in order to utilize the more pronounced reddish colour of Bacillus atrophaeus colonies which was facilitating analysis and documentation. […]

For series [2] the following is noted: cited from earlier work.

Each structure is given as a SMILES string. Where two headings read alike, the source gives them in different places.

As for `O=[O+][O-]` [ozone], the “sterilizing/disinfecting/killing effect (in words)” value in series [1] was “increased after 10 min compared to 5 min”. Moreover, the “half-life of ozone in gas” value in series [2] (20 ° C.) was “approximately 3 days”; in series [2] (250° C.), 1.5 s.

Values taken from patent US20090274577A1, “STE[…] TREATMENT WITH REDUCTANT AND OXIDANT” (priority 2008, published 2009).
